In patent publication US10886008B2, “Methods and systems for determining the biological age of samples” (Spring Discovery, Inc., priority 2018, dated 2021):

Columns and labels:
[1] = system: mouse myoblast cells; test: In vitro cell-based drug screening of mouse myoblast cells with machine-learning biological age prediction; design: species or system C57BL/6J mice; details: for Change relative to control: average predicted age of treatment vs vehicle control wells on the same plate, concentrations of Table 8; for Average predicted age of treatment (months): primary myoblasts, concentrations of Table 8: Oxytocin 30 nM, TGFbeta 10 ng/mL, Wnt3a 100 ng/ml, Klotho 0.5 μg/mL, ALK5 inhibitor II 0.5 μM, PP242 300 nM, stained 48 hours post-plating
Method: The machine learning systems and methods for predicting biological age were applied toward accelerating drug screens designed to detect interventions that slow or reverse one or more phenotypes of aging. Such a drug screening approach was tested using proof-of-concept drug screens, including an in vitro drug screening experimental model. This machine learning-based drug screening approach for aging-related therapies is described below. The machine learning-based mouse myoblast cellular aging approach was used to test an in vitro screening model for detecting anti-aging molecules for myoblasts.
The myoblast cell screening was run in parallel with the myoblast biological age prediction described in Example 3, and the same processes for primary cell acquisition, preparation, processing, and image acquisition steps were performed as described in Example 3.
For myoblast screening, replicate 384-well plates were dedicated to testing compound treatments (Treatment Plates) and were seeded with primary myoblasts, replicating the same plate layout as the myoblast age prediction experiment described in Example 3.
For the Treatment Plates, after the cells adhere to the plate (around 2 hours post-plating) the media was changed. For each set of 10 replicate wells from each primary myoblast line, 4 of the wells received media supplemented with vehicle control, 3 wells received media supplemented with one test compound, and 3 wells received media supplemented with another test compound. In this manner, each Treatment Plate was used to test two different compounds, and three Treatment Plates were used in total to test six different compounds.
All Treatment Plates were fed 24 hours post-plating with myoblast growth media supplemented with drugs or their respective vehicle control.
As mentioned, the plates are handled, processed, and stained in the same way as described in the myoblast biological age prediction described in Example 3. Briefly, these plates were stained for EdU, desmin, ER cytopainter, and counterstained with Hoechst.
Next, the data were prepared using a similar process as that described in Example 3. This created a treatment dataset that was analyzed using a previously generated aging model, which was trained on the aging dataset that was generated as described in Example 3.
Next, the data was analyzed using a similar deep convolutional neural network architecture and the machine learning analysis approach described in Example 1. First, the deep convolutional neural network architecture was trained using the aging dataset and the machine learning analysis approach described in Example 1. Performing this training yields a final set of weights to use with the neural network for the treatment analysis. Second, the effects of the treatments were analyzed by applying the generated neural network to the entirety of the treatment dataset. This is subsequently referred to as a “transference” of the aging model to the treatment data.
Next, as described in Example 6, average age predictions for each mouse were produced by predicting the biological age classification for each tile and averaging all tiles' predictions together. This calculation was performed for all three folds of the data, and those average predictions were then averaged together again. This produced a single numerical biological age prediction for each mouse, which was compared to control.
Next, as described in Example 6, p-values were calculated using the Kolmogorov-Smirnov test to assess the statistical difference of the distributions of age predictions for each compound versus control. Note that in this case, because there are multiple plates being tested, each with different test compounds, each compound is compared only to the control wells on its own plate, thereby resulting in different control values for each compound, as shown in Table 9.

[2] = system: mouse skin tissue; test: In vivo tissue-based drug screening of mouse skin tissue with machine-learning biological age prediction; design: species or system C57BL/6J mice; details: daily topical application for 61 days
Method: The machine learning systems and methods for predicting biological age were applied toward accelerating drug screens designed to detect interventions that slow or reverse one or more phenotypes of aging. Such a drug screening approach was tested using proof-of-concept drug screens, including an in vivo drug screening experimental model. This machine learning-based drug screening approach for aging-related therapies is described below. The machine learning-based skin tissue aging modeling approach was used to test an in vivo screening system for detecting topical anti-aging interventions on mouse skin.
Mouse skin tissue samples were acquired and prepared as follows. Skin samples were collected from 75 healthy C57BL/6J mice in five separate groups: 15 mice in a control group were 10 months old (“Control 1”), 15 mice in another control group were 14 months old (“Control 2”), 15 mice in a third control group were 18 months old (“Control 3”), and two independent treatment groups comprised 18-month-old mice (“Test Article 1” and “Test Article 2”). Each treatment group included 15 mice given a daily topical application for 61 days, as detailed below. All mouse ages are referenced from the start of the experiment.
The mice were shaved as necessary on a weekly basis in order to enable daily topical application on the back of the mice. […]

Compound | Change relative to control [1] [%] | Average predicted age of treatment (months) [1] [months] | Average predicted age (months) ([2]; 18-month-old mice, HES-stained skin biopsies, averaged over tiles, three folds and mice) | Change relative to control group ([2]; average predicted age vs control group (averaged across control groups 1-3)) [%]
Wnt3a | −5.04 | 64.11 |  | 
Cc1cccc(-c2[nH]ncc2-c2ccc3ncccc3n2)n1 [ALK5 inhibitor II] | −14.13 | 56.22 |  | 
CC[C@H](C)[C@@H]1NC(=O)[C@H](Cc2ccc(O)cc2)NC(=O)[C@@H](N)CSSC[C@@H](C(=O)N2CCC[C@H]2C(=O)N[C@@H](CC(C)C)C(=O)NCC(N)=O)NC(=O)[C@H](CC(N)=O)NC(=O)[C@H](CCC(N)=O)NC1=O [Oxytocin] | −0.92 | 67.66 |  | 
CC(C)n1nc(-c2cc3cc(O)ccc3[nH]2)c2c(N)ncnc21 [PP242] | −17.14 | 56.16 |  | 
CC1=C(/C=C/C(C)=C/C=C/C(C)=C/C(=O)O)C(C)(C)CCC1 [Test Article 1, All Trans Retinoic Acid] |  |  | 15.9 | −7.28
